Measured values published in ChEMBL document CHEMBL1201862, “PubChem BioAssay data set” (2004).
Calls of active or inactive are those of the source.

Columns and labels:
Cytochrome P450 2C19 = Cytochrome P450 2C19 (Homo sapiens, UniProt P33261); assay: Cytochrome panel assay with activity outcomes. Panel member name: p450-cyp2c19 Compounds with AC50 equal or less than 10 uM are considered active; format: functional; conditions: read-out: AC50
Cytochrome P450 3A4 [1] = molecular target: T1, Cytochrome P450 3A4 (Homo sapiens, UniProt P08684);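 further: CYP3A4 tested as one member of a cytochrome P450 panel screen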
Cytochrome P450 2C9 [2] = molecular target: T2, Cytochrome P450 2C9 (Homo sapiens, UniProt P11712)
Nonstructural protein 1 = Nonstructural protein 1 (Influenza A virus, UniProt Q194T2); format: functional, Influenza A virus (A/California/07/2009(H1N1))
Bcl-2-related protein A1 = molecular target: T3, Bcl-2-related protein A1 (Mus musculus, UniProt Q07440); format: functional;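 further: confirmatory dose–response counterscreen on Bfl-1, used to check hits from a UBC13 polyubiquitin inhibitor campaign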
T3 sequence (Q07440 whole entry): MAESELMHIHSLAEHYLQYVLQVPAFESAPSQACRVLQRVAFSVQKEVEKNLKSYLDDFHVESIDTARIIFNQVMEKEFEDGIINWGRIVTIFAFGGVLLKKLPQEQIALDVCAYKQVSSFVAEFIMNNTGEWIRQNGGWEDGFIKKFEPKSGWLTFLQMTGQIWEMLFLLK

[3] = molecular target: T4, Ubiquitin-conjugating enzyme E2 N (Homo sapiens, UniProt P61088); format: functional
T4 sequence (P61088 whole entry): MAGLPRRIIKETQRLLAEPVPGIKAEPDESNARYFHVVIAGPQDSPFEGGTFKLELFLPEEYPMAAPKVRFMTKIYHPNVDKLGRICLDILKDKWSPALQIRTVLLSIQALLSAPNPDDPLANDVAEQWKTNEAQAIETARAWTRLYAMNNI

[4] = molecular target: T4, Ubiquitin-conjugating enzyme E2 N; format: functional; remark: listed apart in the source
Cytochrome P450 2C9 [5] = molecular target: T2, Cytochrome P450 2C9; remark: listed apart in the source
Cytochrome P450 3A4 [6] = molecular target: T1, Cytochrome P450 3A4; remark: listed apart in the source
[7] = molecular target: T5, Short transient receptor potential channel 4 (Mus musculus, UniProt Q9QUQ5); assay: calcium entry via TRPC4 opening agents – cell-based, HEK293 TRPC4/mu-opioid, Fluo-4 calcium, dose response (AID 434937); format: functional
T5 sequence (Q9QUQ5 whole entry): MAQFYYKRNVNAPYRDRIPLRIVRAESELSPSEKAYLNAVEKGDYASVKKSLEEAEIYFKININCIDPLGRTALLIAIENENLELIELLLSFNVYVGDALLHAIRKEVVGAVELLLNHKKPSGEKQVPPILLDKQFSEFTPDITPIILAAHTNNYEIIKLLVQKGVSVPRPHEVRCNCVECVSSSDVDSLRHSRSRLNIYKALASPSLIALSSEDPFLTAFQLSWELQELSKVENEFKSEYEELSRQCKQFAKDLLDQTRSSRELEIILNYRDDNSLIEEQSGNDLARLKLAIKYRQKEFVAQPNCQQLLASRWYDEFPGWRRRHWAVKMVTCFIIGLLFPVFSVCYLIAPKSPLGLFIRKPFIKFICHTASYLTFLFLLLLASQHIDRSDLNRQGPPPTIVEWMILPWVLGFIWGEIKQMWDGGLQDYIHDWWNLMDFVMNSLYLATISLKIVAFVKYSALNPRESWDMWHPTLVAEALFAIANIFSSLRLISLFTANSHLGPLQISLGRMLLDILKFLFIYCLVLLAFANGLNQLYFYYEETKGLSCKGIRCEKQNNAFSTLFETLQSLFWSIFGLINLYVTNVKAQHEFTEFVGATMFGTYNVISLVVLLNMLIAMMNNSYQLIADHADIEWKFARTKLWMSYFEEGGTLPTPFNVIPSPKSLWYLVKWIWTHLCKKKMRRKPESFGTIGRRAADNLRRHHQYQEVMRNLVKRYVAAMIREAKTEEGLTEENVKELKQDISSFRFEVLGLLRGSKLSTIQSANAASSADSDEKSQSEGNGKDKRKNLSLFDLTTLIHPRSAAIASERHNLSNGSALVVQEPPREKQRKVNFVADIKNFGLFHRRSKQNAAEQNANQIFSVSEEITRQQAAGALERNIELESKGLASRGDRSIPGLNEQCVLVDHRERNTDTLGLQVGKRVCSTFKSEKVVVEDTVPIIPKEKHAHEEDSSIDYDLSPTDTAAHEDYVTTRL

Cytochrome P450 1A2 = molecular target: T6, Cytochrome P450 1A2 (Homo sapiens, UniProt P05177);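 further: PubChem cytochrome P450 panel assay, CYP1A2 panel member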
T6 sequence (P05177 whole entry): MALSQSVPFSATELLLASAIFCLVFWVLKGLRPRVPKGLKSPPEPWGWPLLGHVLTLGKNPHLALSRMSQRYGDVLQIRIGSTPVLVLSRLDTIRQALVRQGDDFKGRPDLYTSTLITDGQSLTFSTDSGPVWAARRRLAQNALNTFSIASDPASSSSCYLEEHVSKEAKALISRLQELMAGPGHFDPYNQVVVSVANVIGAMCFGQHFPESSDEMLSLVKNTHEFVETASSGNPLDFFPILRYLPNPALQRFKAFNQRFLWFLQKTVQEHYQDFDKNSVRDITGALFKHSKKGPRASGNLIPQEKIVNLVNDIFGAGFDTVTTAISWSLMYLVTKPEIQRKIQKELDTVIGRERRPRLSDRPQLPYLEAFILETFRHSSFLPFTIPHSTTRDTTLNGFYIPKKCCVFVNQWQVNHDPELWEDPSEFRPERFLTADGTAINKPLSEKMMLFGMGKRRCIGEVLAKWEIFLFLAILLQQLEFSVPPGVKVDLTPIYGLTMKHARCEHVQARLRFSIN

Cytochrome P450 2D6 = Cytochrome P450 2D6 (Homo sapiens, UniProt P10635);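 further: CYP2D6 member of a cytochrome P450 panel assay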
[8] = molecular target: T7, Heat shock factor protein 1 (Mus musculus, UniProt P38532); assay: decrease of HSF1-responsive luciferase luminescence – cell-based, NIH3T3, dose retest, confirmation (AID 2382); format: functional;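 further: NIH3T3 fibroblasts with HSF1-driven luciferase reporter stressed by proteasome inhibitor MG132; luminescence from HSF1-driven luciferase expression after 8 hours of MG132 stress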
T7 sequence (P38532 whole entry): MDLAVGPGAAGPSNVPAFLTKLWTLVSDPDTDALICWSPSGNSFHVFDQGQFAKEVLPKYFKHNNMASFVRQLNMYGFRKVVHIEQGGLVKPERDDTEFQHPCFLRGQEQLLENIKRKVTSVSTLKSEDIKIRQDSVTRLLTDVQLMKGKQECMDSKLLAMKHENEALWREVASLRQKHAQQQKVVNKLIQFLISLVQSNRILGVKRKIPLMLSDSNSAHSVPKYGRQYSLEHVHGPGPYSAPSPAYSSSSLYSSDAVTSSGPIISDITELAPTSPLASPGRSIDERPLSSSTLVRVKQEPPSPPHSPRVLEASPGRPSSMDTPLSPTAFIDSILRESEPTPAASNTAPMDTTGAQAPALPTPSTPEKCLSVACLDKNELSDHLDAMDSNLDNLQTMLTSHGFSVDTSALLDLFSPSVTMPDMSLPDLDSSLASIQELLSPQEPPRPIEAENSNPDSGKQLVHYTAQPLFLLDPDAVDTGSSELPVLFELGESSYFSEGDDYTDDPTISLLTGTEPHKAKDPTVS

[9] = molecular target: Glucose-6-phosphate 1-dehydrogenase (Homo sapiens, UniProt P11413); assay: inhibition of Homo sapiens G6PD, dose series – biochemical, fluorescence, selectivity assay for P. falciparum G6PD inhibitor project, dose response (AID 504792); format: functional
[10] = molecular target: T8, Mannose-6-phosphate isomerase (Homo sapiens, UniProt P34949); assay: MPI inhibition at elevated mannose 6-phosphate – biochemical, fluorescence intensity, high mannose 6-phosphate, primary screen (AID 1220)
T8 sequence (P34949 whole entry): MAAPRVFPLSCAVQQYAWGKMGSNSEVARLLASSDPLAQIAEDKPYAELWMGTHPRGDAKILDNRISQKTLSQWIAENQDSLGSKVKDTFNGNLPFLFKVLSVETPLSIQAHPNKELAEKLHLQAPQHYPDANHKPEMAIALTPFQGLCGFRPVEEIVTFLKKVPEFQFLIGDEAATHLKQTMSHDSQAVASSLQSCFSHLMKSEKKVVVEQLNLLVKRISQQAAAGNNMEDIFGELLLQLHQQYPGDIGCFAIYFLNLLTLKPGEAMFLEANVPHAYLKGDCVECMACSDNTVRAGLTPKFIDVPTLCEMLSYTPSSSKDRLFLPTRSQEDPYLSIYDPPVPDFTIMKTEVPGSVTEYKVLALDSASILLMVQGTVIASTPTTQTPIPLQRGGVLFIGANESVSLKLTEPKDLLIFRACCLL

T1 sequence (P08684 whole entry): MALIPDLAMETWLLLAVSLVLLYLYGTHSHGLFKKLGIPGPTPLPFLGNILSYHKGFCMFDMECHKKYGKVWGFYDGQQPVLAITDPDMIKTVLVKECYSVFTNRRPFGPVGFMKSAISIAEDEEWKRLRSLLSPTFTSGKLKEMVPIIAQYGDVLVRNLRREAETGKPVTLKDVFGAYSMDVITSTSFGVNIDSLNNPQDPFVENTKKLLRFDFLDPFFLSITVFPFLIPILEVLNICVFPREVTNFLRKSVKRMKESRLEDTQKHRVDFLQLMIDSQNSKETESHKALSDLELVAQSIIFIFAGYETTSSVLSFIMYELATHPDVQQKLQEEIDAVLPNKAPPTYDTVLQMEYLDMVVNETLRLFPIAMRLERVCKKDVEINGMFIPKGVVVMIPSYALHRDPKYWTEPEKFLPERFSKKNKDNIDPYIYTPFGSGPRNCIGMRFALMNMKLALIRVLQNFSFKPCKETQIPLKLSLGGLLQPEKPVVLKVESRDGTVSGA
T2 sequence (P11712 whole entry): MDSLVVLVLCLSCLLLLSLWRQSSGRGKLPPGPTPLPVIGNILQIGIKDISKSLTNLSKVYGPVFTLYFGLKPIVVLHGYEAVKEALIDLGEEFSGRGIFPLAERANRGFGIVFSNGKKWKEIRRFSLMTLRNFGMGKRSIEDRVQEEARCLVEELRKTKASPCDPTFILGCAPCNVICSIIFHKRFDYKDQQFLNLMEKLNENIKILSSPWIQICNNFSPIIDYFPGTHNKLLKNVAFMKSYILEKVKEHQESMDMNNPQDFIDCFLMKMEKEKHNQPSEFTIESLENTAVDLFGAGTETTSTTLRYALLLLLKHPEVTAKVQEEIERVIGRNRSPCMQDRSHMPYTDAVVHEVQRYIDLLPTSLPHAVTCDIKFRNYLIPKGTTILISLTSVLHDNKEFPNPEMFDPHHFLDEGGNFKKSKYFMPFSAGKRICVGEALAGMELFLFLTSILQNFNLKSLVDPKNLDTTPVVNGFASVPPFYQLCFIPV
Sequence of Cytochrome P450 2C19 (P33261 whole entry): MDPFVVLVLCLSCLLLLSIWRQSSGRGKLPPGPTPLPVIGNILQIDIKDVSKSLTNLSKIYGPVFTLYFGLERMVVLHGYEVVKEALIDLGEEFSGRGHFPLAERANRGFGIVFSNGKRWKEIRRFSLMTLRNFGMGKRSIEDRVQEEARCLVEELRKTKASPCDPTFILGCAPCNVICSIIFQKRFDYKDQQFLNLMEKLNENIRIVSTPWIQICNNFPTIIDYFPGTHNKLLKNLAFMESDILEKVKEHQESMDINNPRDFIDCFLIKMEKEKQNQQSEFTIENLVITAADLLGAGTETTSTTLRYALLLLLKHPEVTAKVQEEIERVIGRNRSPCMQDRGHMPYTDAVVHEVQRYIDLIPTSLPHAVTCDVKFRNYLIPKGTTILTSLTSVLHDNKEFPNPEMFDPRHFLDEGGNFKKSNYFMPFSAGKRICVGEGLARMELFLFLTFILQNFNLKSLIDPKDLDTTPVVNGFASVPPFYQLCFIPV
Sequence of Glucose-6-phosphate 1-dehydrogenase (P11413 whole entry): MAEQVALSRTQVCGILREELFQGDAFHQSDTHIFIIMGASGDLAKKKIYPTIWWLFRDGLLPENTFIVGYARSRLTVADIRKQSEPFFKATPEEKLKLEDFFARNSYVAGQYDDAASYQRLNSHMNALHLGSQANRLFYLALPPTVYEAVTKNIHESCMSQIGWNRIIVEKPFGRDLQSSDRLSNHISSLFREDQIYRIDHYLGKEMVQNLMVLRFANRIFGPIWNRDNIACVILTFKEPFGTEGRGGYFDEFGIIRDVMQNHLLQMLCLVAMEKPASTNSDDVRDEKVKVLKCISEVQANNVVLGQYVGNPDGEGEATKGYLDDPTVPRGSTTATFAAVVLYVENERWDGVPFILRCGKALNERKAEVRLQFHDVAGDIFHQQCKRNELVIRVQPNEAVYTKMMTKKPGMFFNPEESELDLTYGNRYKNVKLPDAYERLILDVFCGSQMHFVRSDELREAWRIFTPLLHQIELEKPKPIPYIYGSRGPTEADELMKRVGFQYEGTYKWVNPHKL
Sequence of Nonstructural protein 1 (Q194T2 whole entry): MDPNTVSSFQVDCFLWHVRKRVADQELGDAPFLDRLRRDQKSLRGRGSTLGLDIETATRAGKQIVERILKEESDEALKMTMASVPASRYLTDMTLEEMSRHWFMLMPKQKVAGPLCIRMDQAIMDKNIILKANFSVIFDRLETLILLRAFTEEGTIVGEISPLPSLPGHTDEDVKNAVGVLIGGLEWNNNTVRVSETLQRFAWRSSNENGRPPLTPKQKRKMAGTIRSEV
Sequence of Cytochrome P450 2D6 (P10635 whole entry): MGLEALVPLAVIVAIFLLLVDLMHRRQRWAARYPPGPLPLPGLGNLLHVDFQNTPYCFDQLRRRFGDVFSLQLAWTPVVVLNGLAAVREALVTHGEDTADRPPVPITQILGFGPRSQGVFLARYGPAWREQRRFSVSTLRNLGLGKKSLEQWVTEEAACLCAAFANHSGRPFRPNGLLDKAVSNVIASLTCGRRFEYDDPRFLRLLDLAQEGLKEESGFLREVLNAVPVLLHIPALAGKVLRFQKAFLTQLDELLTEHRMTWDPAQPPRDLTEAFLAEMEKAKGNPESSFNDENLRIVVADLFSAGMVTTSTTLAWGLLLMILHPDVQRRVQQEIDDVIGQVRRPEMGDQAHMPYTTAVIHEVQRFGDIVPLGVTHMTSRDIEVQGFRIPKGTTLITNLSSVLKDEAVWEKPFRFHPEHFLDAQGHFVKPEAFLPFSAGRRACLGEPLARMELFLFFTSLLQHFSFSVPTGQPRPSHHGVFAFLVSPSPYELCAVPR

CCCCCCCCCCC/C=C\C(C)(C)/C=C\CCCC(=O)O
AC50 (Cytochrome P450 2C19): 25.1 µM (inconclusive) | AC50 (Cytochrome P450 3A4 [1]): inconclusive | AC50 (Cytochrome P450 2C9 [2]): 15.8 µM (inconclusive)

NNc1nccc(Nc2ccccc2C(=O)O)n1
IC50 (Nonstructural protein 1): 8.21 µM (active)

O=C(c1cnccn1)N1CCC2(CC1)CCN(c1ccccc1)CC2
AC50 (Cytochrome P450 3A4 [1]): inconclusive

CCc1cccc2c(C(=O)C(NC(C)CC)c3ccccc3)c[nH]c12 (stereo not given)
IC50 (Bcl-2-related protein A1): > 20 µM (inactive) | IC50 [3]: 9.25 µM (active) | IC50 [4]: 16.6 µM (active)

CNc1oc(-c2cccs2)nc1C#N
AC50 (Cytochrome P450 2C9 [5]): inconclusive | AC50 (Cytochrome P450 3A4 [6]): 28.2 µM (inconclusive)

COc1ccc(C(CCNCc2ccc(N(C)C)cc2)c2ccccc2OC)cc1 (stereo not given)
EC50 [7]: 10.6 µM (active) | IC50 (Nonstructural protein 1): 20.2 µM (active)

CCCCn1c(SCC(=O)NC(C)(C)C)nnc1-c1ccco1
AC50 (Cytochrome P450 1A2): 0.316 µM (inconclusive) | AC50 (Cytochrome P450 2D6): 12.6 µM (inconclusive) | AC50 (Cytochrome P450 3A4 [1]): inconclusive | AC50 (Cytochrome P450 2C9 [2]): 0.0398 µM (inconclusive)

CCCS(=O)(=O)c1ncc(Cl)c(C(=O)Nc2ccc(S(=O)(=O)Nc3ncccn3)cc2)n1
IC50 (Bcl-2-related protein A1): > 20 µM (inactive) | IC50 [3]: > 20 µM (inactive) | IC50 [4]: 14 µM (active)

CN1CCN(c2ncc3nc(-c4ccc(F)cc4)c(=O)n(Cc4cccs4)c3n2)CC1
AC50 (Cytochrome P450 1A2): 25.1 µM (inconclusive) | AC50 (Cytochrome P450 2C19): 31.6 µM (inconclusive) | AC50 (Cytochrome P450 3A4 [1]): inconclusive | AC50 (Cytochrome P450 2C9 [2]): 0.0126 µM (inconclusive)

Cc1nn(CC(=O)NCCCN2CCC(Cc3ccccc3)CC2)c(=O)c2cc(-c3ccccc3)nn12
EC50 [8]: > 195 µM (not active) | IC50 (Bcl-2-related protein A1): > 20 µM (inactive) | IC50 [3]: 4.59 µM (active) | IC50 [4]: 11.4 µM (active)

CCN(CC)c1ccc(NC(=O)c2ccccc2Br)cc1S(=O)(=O)Nc1ccccc1OC
IC50 [9]: > 80 µM (inactive) | IC50 [10]: 43.7 µM (active)

Cc1no[n+]([O-])c1COc1cccc(/C=N/Nc2nncn2N)c1
IC50 [9]: 58.7 µM (inactive)
